“Also recorded” adds a separate entry of the source.
Columns and labels:
[1] = test system: hepatocellular carcinoma (HepG2) cells; assay: Antiproliferative MTT assay, HepG2; format: cell-based, human; settings: for IC50: Homo sapiens, HepG2, 72 h, 72 h incubation, MTT, mean ± SD
Procedure, shortened: (§1)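 MTT read-out after 72 h exposure to compounds (0.01–100 µM, fivefold/tenfold dilutions in growth medium). Seeding 3000 cells/well for carcinoma lines, 5000 for HFF-1. IC50 by linear regression; 5-FU reference.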

[2] = test system: MCF-7, CFPAC-1, HT-29, HepG2 tumor cell lines and HFF-1 fibroblasts; assay: Antiproliferative activity, whole cell line panel; format: cell-based, human; settings: tested cell lines
Method: The human ATCC tumor cell lines breast adenocarcinoma (MCF7), colorectal carcinoma (HT-29), pancreatic ductal adenocarcinoma (CFPAC-1), hepatocellular carcinoma (HepG2), and normal skin fibroblasts (HFF) derived from ATCC (American Type Culture Collection) were cultured in Dulbecco’s Modified Eagle Medium (DMEM) or Minimum Essential Medium (MEM) supplemented with 10% fetal bovine serum (FBS), 2 mM L-glutamine, 100 U/mL penicillin, and 100 µg/mL streptomycin (Lonza, Basel, Switzerland) in a humidified atmosphere with 5% CO2 at 37 °C. For the experiment, carcinoma cell lines and normal human cell lines were seeded in 96-well microtiter plates at a density of 3000 cells per well and 5000 cells per well, respectively, depending on the doubling time of the specific cell line. The test substances were then added at fivefold, tenfold dilutions (0.01 to 100 µM), freshly prepared in the growth medium on the day of testing, and incubated for a further 72 h. After 72 h of incubation, the growth rate of the cells was determined using the MTT assay according to the manufacturer’s guidelines. […] The IC50 values were calculated from the dose–response curves using linear regression analysis. The experiment was performed in tetraplicates in two individual experiments.
Newly synthesized compounds were evaluated for their cytotoxic activity in vitro against four human cancer cell lines, including human breast adenocarcinoma (MCF-7), ductal pancreatic adenocarcinoma (CFPAC-1), colorectal carcinoma (HT-29), and hepatocellular carcinoma (HepG2), as well as on non-cancerous skin fibroblasts (HFF-1), to check for non-specific toxicity. Furthermore, 5-Fluorouracil (5-FU) was used as a reference drug. The results are expressed as 50% inhibitory concentration (IC50) values and are listed in Table 2, Table 3, Table 4 and Table 5.

[3] = test system: pancreatic ductal adenocarcinoma (CFPAC-1) cells; assay: Antiproliferative MTT assay, CFPAC-1; format: cell-based, human; settings: for IC50: 72 h incubation, MTT, mean ± SD
Procedure, shortened: as §1

[4] = test system: breast adenocarcinoma (MCF7) cells; assay: Antiproliferative MTT assay, MCF-7; format: cell-based, human; settings: for IC50: Homo sapiens, MCF7, 72 h incubation, MTT, mean ± SD
Procedure, shortened: as §1

[5] = test system: MDCKII-MDR1 cells (P-glycoprotein); assay: MDCKII-MDR1 permeability assay; format: in vitro ADME, canine cells with over-expressed human MDR1 gene; settings: permeability class
Procedure, shortened: (§2)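 Bidirectional transport across MDCKII cells overexpressing human MDR1, compounds 10 µM (1% DMSO) for 60 min at 37 °C, with and without 2 µM elacridar. Monolayer integrity checked by Lucifer yellow; compound concentrations quantified by LC-MS/MS (MRM).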

[6] = test system: P-glycoprotein (human MDR1); assay: MDCKII-MDR1 permeability assay; format: in vitro ADME, canine cells with over-expressed human MDR1 gene; settings: dog, MDCK-MDR1; for Papp A→B at 60 min, 10 µM / Papp B→A at 60 min, 10 µM: 37 °C; for efflux ratio at 60 min, 10 µM: <2 no efflux, >2 active efflux
Procedure, shortened: as §2

IC50 [1]	IC50 [3]	IC50 ([3]; Homo sapiens, CFPAC-1, 72 h)	IC50 [4]	Papp A→B at 60 min, 10 µM [6]	Papp B→A at 60 min, 10 µM [6]	efflux ratio at 60 min, 10 µM [6]	Papp at 60 min, 10 µM ([6]; permeability class)	Structure (SMILES)	antiproliferative activity (in words) [2]	SI (CFPAC-1) ([3]; SI = [IC50 HFF]/[IC50 CFPAC-1])	SI (MCF-7) ([4]; SI = [IC50 HFF]/[IC50 MCF-7])	Permeability [5]	SI (HepG2) ([1]; SI = [IC50 HFF]/[IC50 HepG2])
28 ± 0.5 µM	1 ± 0.7 µM	1 to 8 µM	0.5 ± 0.1 µM	7.6 ×10⁻⁶ cm/s	66.4 ×10⁻⁶ cm/s	8.8	–	OCC(c1ccc(C(F)(F)F)cc1)n1cc(Cn2ccc3c(Cl)ncnc32)nn1 (stereo not shown) [Compound 45a, 4-Chloro-7-((1-(2-hydroxy-1-(4-(trifluoromethyl)phenyl)ethyl)-1H-1,2,3-triazol-4-yl)methyl)-7H-pyrrolo[2,3-d]pyrimidine]	submicromolar antiproliferative activity	20.0	40	good membrane permeability; also recorded: MODERATE	–
4 µM	–	21 ± 0.7 µM	46 µM	≤ 2 ×10⁻⁶ cm/s	36.9 ×10⁻⁶ cm/s	23.3	≤ 2 ×10⁻⁶ cm/s	OC(Cn1cc(Cn2cnc3c(Cl)nccc32)nn1)c1ccc(Br)cc1 (stereo not shown) [Compound 49b, 4-Chloro-1-((1-(2-hydroxy-2-(4-bromophenyl)ethyl)-1H-1,2,3-triazol-4-yl)methyl)-1H-imidazo[4,5-c]pyridine]	–	–	–	–	5.3
